Measured values from paper PMC3914206.

Assays:
panel of 442 kinases [1] = target: T1, panel of 442 kinases (Homo sapiens, UniProt P51956); format: binding; conditions: Compound Concentration 10 µM
T1 construct: purchased KINOMEscan
T1 sequence (P51956 1-506): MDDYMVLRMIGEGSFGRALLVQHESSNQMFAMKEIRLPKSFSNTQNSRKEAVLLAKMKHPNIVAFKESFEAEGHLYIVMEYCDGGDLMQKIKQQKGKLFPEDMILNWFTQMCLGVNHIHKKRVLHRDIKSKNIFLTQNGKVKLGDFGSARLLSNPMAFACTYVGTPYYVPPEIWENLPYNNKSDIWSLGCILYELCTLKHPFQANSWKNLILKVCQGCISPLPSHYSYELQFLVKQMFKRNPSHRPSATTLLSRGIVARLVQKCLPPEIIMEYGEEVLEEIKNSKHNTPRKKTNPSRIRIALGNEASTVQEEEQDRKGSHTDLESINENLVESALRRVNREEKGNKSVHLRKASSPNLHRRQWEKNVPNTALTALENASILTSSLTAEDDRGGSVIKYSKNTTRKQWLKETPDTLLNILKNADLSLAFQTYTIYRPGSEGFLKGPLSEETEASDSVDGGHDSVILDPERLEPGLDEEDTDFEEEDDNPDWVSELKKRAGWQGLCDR
From the text: (§1) We assessed the selectivity of members of this scaffold using the KINOMEscan methodology across a near comprehensive panel of 442 kinases [[18,27]].

panel of 442 kinases [2] = target: T2, panel of 442 kinases (Homo sapiens, UniProt Q59H18); format: binding; conditions: kinase TNNI3K; compound concentration 10 µM
T2 construct: purchased KINOMEscan
T2 sequence (Q59H18 1-835): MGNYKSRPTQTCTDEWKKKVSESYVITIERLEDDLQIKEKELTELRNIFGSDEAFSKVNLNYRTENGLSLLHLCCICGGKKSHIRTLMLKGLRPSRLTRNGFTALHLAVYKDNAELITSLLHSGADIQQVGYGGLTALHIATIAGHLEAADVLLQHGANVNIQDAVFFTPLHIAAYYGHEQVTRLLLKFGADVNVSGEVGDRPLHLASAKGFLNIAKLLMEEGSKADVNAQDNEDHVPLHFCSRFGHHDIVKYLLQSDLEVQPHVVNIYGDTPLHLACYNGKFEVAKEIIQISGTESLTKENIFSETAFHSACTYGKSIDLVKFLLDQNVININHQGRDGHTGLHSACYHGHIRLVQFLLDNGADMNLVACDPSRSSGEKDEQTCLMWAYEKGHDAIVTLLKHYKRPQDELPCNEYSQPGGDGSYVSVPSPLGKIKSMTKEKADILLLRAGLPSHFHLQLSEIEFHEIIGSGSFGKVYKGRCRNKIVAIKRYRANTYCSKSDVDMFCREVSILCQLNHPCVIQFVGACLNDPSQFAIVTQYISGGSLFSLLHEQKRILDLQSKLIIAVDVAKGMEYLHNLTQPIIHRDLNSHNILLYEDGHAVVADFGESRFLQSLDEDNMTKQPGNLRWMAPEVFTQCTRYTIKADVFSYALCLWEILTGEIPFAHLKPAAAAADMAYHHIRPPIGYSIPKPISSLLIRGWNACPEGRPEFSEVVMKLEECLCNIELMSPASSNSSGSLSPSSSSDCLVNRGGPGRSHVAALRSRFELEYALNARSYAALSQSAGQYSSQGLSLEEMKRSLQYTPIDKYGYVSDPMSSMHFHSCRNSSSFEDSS
From the text: as §1

Row | SMILES | KINOMEscan: NEK3 (panel of 442 kinases [1]) | % Ctrl, TNNI3K (panel of 442 kinases [2]) [% Ctrl]
1 | COc1cc(C(=O)N2CCC(N3CCN(C)CC3)CC2)ccc1Nc1ncc2c(n1)N(C1CCCC1)c1ccccc1C(=O)N2C [Compound 25, 11-cyclopentyl-2-((2-methoxy-4-(4-(4-methylpiperazin-1-yl)piperidine-1-carbonyl)phenyl)amino)-5-methyl-5H-benzo[e]pyrimido[5,4-b][1,4]diazepin-6(11H)-one] | 100 | 82
2 | COc1cc(C(=O)N2CCC(N3CCN(C)CC3)CC2)ccc1Nc1ncc2c(n1)N1CCc3cccc(c31)C(=O)N2C [Compound 24] | – | 73
3 | COc1cc(C(=O)N2CCC(N3CCN(C)CC3)CC2)ccc1Nc1ncc2c(n1)N(C)c1ccccc1C(=O)N2C [15 (LRRK2-IN-1)] | 100 | 100
4 | CCOc1cc(C(=O)N2CCC(N3CCN(C)CC3)CC2)ccc1Nc1ncc2c(n1)N(C1CCCC1)c1ccccc1C(=O)N2C [Compound 26] | 83 | 89
